Experimental data reported in patent publication US11492335B2, “Aryl or heteroaryl triazolone derivatives or salts thereof, or pharmaceutical compositions comprising the same” (YUHAN CORPORATION, priority 2018, dated 2022).
Counter-ions that a name gives are not always drawn. Like-named read-outs stand apart in the source and are kept apart here.

How the values were obtained:
Format in all cases: biochemical
[1] = molecular target: T1, recombinant human VAP-1 (Homo sapiens, UniProt Q16853); assay: Activity on recombinant human VAP-1, Amplex Red HRP-coupled hydrogen peroxide assay, benzylamine substrate; conditions: recombinant human VAP-1, benzylamine substrate; read-out: Inhibitory Activity (IC50, nM) human VAP-1
T1 construct: purchased R&D systems
T1 sequence (Q16853 1-763): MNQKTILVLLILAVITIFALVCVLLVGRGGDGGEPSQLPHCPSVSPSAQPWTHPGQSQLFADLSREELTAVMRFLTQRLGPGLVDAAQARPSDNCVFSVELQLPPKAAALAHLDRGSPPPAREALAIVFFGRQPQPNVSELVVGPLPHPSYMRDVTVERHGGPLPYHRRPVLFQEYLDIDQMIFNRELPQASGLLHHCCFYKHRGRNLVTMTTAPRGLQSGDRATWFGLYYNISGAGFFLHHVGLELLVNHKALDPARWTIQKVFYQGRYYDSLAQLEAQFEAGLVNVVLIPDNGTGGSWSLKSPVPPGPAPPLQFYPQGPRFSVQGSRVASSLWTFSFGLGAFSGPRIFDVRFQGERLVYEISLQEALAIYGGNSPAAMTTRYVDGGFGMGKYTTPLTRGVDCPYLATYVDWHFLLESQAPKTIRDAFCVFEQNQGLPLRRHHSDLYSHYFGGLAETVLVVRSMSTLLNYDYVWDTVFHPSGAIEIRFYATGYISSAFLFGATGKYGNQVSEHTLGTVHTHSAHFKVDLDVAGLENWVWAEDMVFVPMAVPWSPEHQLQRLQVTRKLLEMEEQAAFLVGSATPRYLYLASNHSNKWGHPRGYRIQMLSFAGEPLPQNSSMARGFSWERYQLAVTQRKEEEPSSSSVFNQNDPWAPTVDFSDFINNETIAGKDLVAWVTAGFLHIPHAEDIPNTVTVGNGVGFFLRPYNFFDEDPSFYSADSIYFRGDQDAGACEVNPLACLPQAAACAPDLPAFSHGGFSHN
Summary of the method: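 Fluorescence of resorufin formed from H2O2 (ex 544 nm, em 590 nm) was tracked for 1-2 h after adding 1 mM benzylamine, 200 uM Amplex Red and 1 U/mL HRP to enzyme pretreated with compound for 30 min at 37 °C. IC50 values derive from four-variable logistic fits.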

[2] = molecular target: T2, recombinant human MAO-A (monoamine oxidase-A) (Homo sapiens, UniProt P21397); assay: Activity on recombinant human MAO-A, Amplex Red method, 0.5 mM tyramine substrate; conditions: 0.5 mM tyramine substrate, read-out: Inhibitory Activity (IC50, nM) MAO-A
T2 construct: purchased Sigma-Aldrich
T2 sequence (P21397 1-527): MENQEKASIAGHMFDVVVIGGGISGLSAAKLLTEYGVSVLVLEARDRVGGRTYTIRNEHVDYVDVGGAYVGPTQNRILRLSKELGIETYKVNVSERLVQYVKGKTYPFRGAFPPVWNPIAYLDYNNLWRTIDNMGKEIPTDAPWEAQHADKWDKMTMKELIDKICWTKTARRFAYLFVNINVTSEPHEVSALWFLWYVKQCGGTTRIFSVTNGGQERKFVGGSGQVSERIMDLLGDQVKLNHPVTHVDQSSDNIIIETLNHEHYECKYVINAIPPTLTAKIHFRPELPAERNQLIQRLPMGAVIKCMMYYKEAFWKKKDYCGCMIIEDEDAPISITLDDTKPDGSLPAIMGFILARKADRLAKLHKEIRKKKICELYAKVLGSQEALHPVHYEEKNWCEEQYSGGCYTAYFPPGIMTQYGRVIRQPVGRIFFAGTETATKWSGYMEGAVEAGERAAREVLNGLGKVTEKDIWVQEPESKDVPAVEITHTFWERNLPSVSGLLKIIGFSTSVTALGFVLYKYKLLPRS
Summary of the method: (§1)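 Fluorescence (544/590 nm) of resorufin formed from Amplex Red by HRP and enzyme-generated H2O2 was followed over 1-2 h. Substrates were 0.5 mM tyramine for MAO-A and 1 mM benzylamine for MAO-B; compounds were preincubated with enzyme for 30 min at 37° C. IC50 came from four-parameter logistic fitting of signal-rate inhibition.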

[3] = molecular target: T3, recombinant human MAO-B (monoamine oxidase-B) (Homo sapiens, UniProt P27338); assay: Activity on recombinant human MAO-B, Amplex Red method, 1 mM benzylamine substrate; conditions: 1 mM benzylamine substrate, read-out: Inhibitory Activity (IC50, nM) MAO-B
T3 construct: purchased Sigma-Aldrich
T3 sequence (P27338 1-520): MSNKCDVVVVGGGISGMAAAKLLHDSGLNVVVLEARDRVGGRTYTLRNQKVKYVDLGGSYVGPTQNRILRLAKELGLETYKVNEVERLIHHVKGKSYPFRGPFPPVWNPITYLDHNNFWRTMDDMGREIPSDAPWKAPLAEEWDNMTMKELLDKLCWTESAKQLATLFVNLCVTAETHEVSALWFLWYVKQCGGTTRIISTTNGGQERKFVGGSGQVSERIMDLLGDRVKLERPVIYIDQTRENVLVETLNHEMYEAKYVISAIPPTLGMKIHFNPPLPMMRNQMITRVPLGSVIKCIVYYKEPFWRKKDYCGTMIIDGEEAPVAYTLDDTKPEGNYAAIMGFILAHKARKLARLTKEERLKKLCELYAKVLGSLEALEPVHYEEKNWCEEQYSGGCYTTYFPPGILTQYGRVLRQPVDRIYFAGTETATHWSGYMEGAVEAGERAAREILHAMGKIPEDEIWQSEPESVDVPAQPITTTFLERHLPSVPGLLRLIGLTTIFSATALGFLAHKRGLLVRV
Summary of the method: as §1

[4] = molecular target: T4, recombinant human DAO (diamine oxidase) (Homo sapiens, UniProt P19801); assay: Activity on recombinant human DAO, Amplex Red method, 1 mM putrescine substrate; conditions: recombinant human DAO, 1 mM putrescine substrate, read-out: Inhibitory Activity (IC50, nM) DAO
T4 construct: purchased R&D systems
T4 sequence (P19801 20-751): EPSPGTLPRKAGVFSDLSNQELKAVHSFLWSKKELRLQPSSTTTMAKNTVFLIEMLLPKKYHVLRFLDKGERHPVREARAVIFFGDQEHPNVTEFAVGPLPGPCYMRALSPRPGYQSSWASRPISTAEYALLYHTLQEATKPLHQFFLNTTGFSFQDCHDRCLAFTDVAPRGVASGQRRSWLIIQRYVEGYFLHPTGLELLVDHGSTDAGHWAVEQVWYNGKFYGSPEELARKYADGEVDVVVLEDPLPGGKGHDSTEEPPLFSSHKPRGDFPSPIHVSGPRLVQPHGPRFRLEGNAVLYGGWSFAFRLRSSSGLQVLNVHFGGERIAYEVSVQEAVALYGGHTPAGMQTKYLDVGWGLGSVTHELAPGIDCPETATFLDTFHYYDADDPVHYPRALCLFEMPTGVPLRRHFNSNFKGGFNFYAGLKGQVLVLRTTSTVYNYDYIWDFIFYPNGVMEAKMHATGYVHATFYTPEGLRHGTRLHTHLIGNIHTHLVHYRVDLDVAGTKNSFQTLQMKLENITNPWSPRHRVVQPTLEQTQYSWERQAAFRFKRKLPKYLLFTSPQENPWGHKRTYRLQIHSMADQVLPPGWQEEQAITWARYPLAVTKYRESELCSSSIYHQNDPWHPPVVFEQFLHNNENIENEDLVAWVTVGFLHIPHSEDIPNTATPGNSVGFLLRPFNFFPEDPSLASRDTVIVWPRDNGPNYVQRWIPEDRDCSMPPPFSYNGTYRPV
Summary of the method: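 Inhibition of recombinant human DAO (diamine oxidase, R&D systems) was assessed with the Amplex Red Hydrogen Peroxide Assay Kit. Hydrogen peroxide produced from 1 mM putrescine was detected through an HRP-coupled reaction that converts Amplex Red into fluorescent resorufin, read at 544 nm excitation and 590 nm emission. IC50 values came from four-parameter logistic fits in GraphPad Prism.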

| SMILES | IC50 [1] | IC50 [2] | IC50 [3] | IC50 [4] | IC50 ([4]; bound qualified by footnote * / **) |
| --- | --- | --- | --- | --- | --- |
| Cc1cc(-c2cccc(-n3cnn(C/C(=C/F)CN)c3=O)n2)cc2c1NC(=O)CC2 [Example 197, 6-(6-{1-[(2E)-2-(aminomethyl)-3-fluoroprop-2-en-1-yl]-5-oxo-1,5-dihydro-4H-1,2,4-triazol-4-yl}pyridin-2-yl)-8-methyl-3,4-dihydroquinolin-2(1H)-one hydrochloride] | 0.08 nM | 81000 nM | 250 nM | 2.6 nM |  |
| CN1C(=O)CCc2cc(-c3cccc(-n4cnn(C/C(=C/F)CN)c4=O)n3)ccc21 [Example 198, 6-[6-[1-[(E)-2-(aminomethyl)-3-fluoro-allyl]-5-oxo-1,2,4-triazol-4-yl]-2-pyridyl]-1-methyl-3,4-dihydroquinolin-2-one hydrochloride] | 2.9 nM | > 100000 nM | > 10000 nM | 130 nM |  |
| NC/C(=C\F)Cn1ncn(-c2cccc(-c3ccc4c(c3)NC(=O)CO4)n2)c1=O [Example 199, hydrochloride] | 4.6 nM | > 100000 nM | 1900 nM |  | < 100 nM |
| NC/C(=C\F)Cn1ncn(-c2cccc(-c3cccc4[nH]c(=O)ccc34)n2)c1=O [Example 201, 5-(6-{1-[(2E)-2-(aminomethyl)-3-fluoroprop-2-en-1-yl]-5-oxo-1,5-dihydro-4H-1,2,4-triazol-4-yl}pyridin-2-yl)quinolin-2(1H)-one hydrochloride] | 1.3 nM | > 100000 nM | > 10000 nM | 17 nM |  |
| CN1CCOc2cc(-c3cccc(-n4cnn(C/C(=C/F)CN)c4=O)n3)ccc21 [Example 202, 2-[(2E)-2-(aminomethyl)-3-fluoroprop-2-en-1-yl]-4-[6-(4-methyl-3,4-dihydro-2H-1,4-benzoxazin-7-yl)pyridin-2-yl]-2,4-dihydro-3H-1,2,4-triazol-3-one hydrochloride] | 1 nM | > 100000 nM | 1300 nM | 240 nM |  |
| NC/C(=C\F)Cn1ncn(-c2cccc(-c3cccc4c3oc3ccccc34)n2)c1=O [Example 203, 2-[(2E)-2-(aminomethyl)-3-fluoroprop-2-en-1-yl]-4-[6-(dibenzo[b,d]furan-4-yl)pyridin-2-yl]-2,4-dihydro-3H-1,2,4-triazol-3-one hydrochloride] | 1.8 nM | 12000 nM | 73 nM | 3 nM |  |
| CC(C)c1nc(-c2ccc(-c3cc(-n4cnn(C/C(=C/F)CN)c4=O)ccn3)cc2)no1 [Example 205, 2-[(2E)-2-(aminomethyl)-3-fluoroprop-2-en-1-yl]-4-(2-{4-[5-(propan-2-yl)-1,2,4-oxadiazol-3-yl]phenyl}pyridin-4-yl)-2,4-dihydro-3H-1,2,4-triazol-3-one hydrochloride] | 1 nM | > 100000 nM | 240 nM | < 10 nM |  |

More lines, in order of falling IC50 [1], values ahead:

| IC50 [1] | IC50 [2] | IC50 [3] | IC50 [4] | IC50 ([4]; bound qualified by footnote * / **) | SMILES |
| --- | --- | --- | --- | --- | --- |
| 1.1 nM | > 100000 nM | > 10000 nM | 11 nM |  | NC/C(=C\F)Cn1ncn(-c2cccc(-c3ccc4sc(N)nc4c3)n2)c1=O [Example 196, 4-[6-(2-amino-1,3-benzothiazol-5-yl)pyridin-2-yl]-2-[(2E)-2-(aminomethyl)-3-fluoroprop-2-en-1-yl]-2,4-dihydro-3H-1,2,4-triazol-3-one] |
| 0.89 nM | > 100000 nM | > 10000 nM | < 10 nM |  | NC/C(=C\F)Cn1ncn(-c2ccnc(-c3ccc(C(=O)N4CCOCC4)cc3)c2)c1=O [Example 208, 2-[(2E)-2-(aminomethyl)-3-fluoroprop-2-en-1-yl]-4-{2-[4-(morpholin-4-ylcarbonyl)phenyl]pyridin-4-yl}-2,4-dihydro-3H-1,2,4-triazol-3-one hydrochloride] |
| 0.7 nM | > 100000 nM | 110 nM | < 10 nM |  | CC(C)c1nc(-c2cccc(-c3cc(-n4cnn(C/C(=C/F)CN)c4=O)ccn3)c2)no1 [Example 206, 2-[(2E)-2-(aminomethyl)-3-fluoroprop-2-en-1-yl]-4-(2-{3-[5-(propan-2-yl)-1,2,4-oxadiazol-3-yl]phenyl}pyridin-4-yl)-2,4-dihydro-3H-1,2,4-triazol-3-one hydrochloride] |
| 0.45 nM | > 100000 nM | 1400 nM | < 10 nM |  | NC/C(=C\F)Cn1ncn(-c2ccnc(-c3ccc(N4CCOCC4)cc3)c2)c1=O [Example 207, 2-[(2E)-2-(aminomethyl)-3-fluoroprop-2-en-1-yl]-4-{2-[4-(morpholin-4-yl)phenyl]pyridin-4-yl}-2,4-dihydro-3H-1,2,4-triazol-3-one hydrochloride] |
| 0.2 nM | > 100000 nM | 1100 nM | 1.6 nM |  | NC/C(=C\F)Cn1ncn(-c2cccc(-c3ccc4c(c3)NC(=O)OC4)n2)c1=O [Example 200, 7-(6-{1-[(2E)-2-(aminomethyl)-3-fluoroprop-2-en-1-yl]-5-oxo-1,5-dihydro-4H-1,2,4-triazol-4-yl}pyridin-2-yl)-1,4-dihydro-2H-3,1-benzoxazin-2-one hydrochloride] |
